The values below come from patent US20250270208A1, “BICYCLIC HETEROCYCLES AS MRGPRX2 ANTAGONISTS” (Incyte Corporation, priority 2023, published 2025).

Holding throughout (format): cell-based
Assay [1] has as its target T1, MRGPRX2 (Homo sapiens, UniProt Q96LB1).
T1 sequence (Q96LB1 1-330): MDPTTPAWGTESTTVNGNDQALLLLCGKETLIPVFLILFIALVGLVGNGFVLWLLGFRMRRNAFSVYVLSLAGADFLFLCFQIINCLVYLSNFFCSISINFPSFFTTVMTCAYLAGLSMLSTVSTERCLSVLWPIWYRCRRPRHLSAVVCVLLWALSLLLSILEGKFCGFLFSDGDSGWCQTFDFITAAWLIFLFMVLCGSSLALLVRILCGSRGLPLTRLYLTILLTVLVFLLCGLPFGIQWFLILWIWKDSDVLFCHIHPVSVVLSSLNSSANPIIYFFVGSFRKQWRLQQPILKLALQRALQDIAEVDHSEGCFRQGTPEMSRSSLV
The experiment in a line: MRGPRX2 FLIPR calcium mobilization assay. To be noted: CHO-K1 cells stably expressing human MRGPRX2; Ca2+ release; agonist Cortistatin-14 at EC80. Also on record: host or cells: CHO-K1. The protocol:
Chinese hamster ovary (CHO-K1) cells stably expressing human MRGPRX2 were purchased from Genescript (Piscataway, NJ). The cells were maintained in culture medium (Ham's F-12K) containing 10% (v/v) FBS, 200 μg/mL Zeocin, 100 units/mL penicillin G and 100 μg/mL streptomycin (Life Technologies, Carlsbad, CA). For the assay, the cells were harvested and resuspended with culture medium without Zeocin before plating at 8000 cells per well in 20 μL in 384-well black clear bottom cell culture plates (VWR, Radnor, PA). After 24 hour culture at 37° C. and 5% CO2, the cells were loaded with 20 μL/well of calcium dye (FLIPR Calcium 6 Assay Kit, Molecular Devices, San Jose, CA) diluted in loading buffer (1× Hank's Balanced Salt Solution (HBSS), 5 mM probenecid, 20 mM 4-(2-hydroxyethyl)-1-piperazineethanesulfonic acid (HEPES), pH 7.4, VWR, Radnor, PA) followed with 45 min incubation at 37° C. and 40 min. at r.t. in the dark. Cells were then treated with the addition of 10 uL/well test compounds with a range of increasing concentrations diluted in the assay buffer (1×HBSS, 20 mM HEPES, pH 7.4, VWR, Radnor, PA) with FLIPR Penta (Molecular Devices. San Jose, CA) and incubated for 30 min. at r.t. Ca^2+ release was measured with FLIPR Penta with 10 s basal fluorescence measurement, then 12.5 μL of 5× agonist Cortistatin-14 (Tocris, Minneapolis, MN) at final concentration corresponding to the EC80 were added followed with continued fluorescence signal monitoring for an additional 110 s. The base line adjusted (median of first 10 s base line) max value of the Relative Fluorescence Unit (RFU) was plotted against compound concentrations. Wells with no compound were served as the positive controls, and wells with high concentration of reference antagonist were used as negative controls. IC50 curves were globally fitted with 3- or 4-parameter Hill equation in a Genedata Screener (Genedata Basel, Switzerland).
A general note: Calcium assays in cells follow changes in intracellular calcium, usually with a dye or a luminescent sensor.

Assay [2] deals with T1, MRGPRX2. The experiment in a line: MRGPRX2 IP1 HTRF assay. Also on record: host or cells: CHO-K1. The following applies: CHO-K1 cells stably expressing human MRGPRX2; IP1 accumulation; agonist Cortistatin 14 1 μM. The protocol:
This assay measures compound inhibition of myo-Inositol 1 phosphate (IP1) accumulation in CHO-K1 cells. Chinese hamster ovary (CHO-K1) cells stably expressing human MRGPRX2 were purchased from GenScript (Piscataway, NJ).
For the HTRF IP1 determination, an IP-One GqKit (Perkin Elmer Cisbio, Waltham, MA), which includes all reagents and buffers in this protocol, was used. The cells were maintained in culture medium (Ham's F-12K) containing 10% (v/v) FBS, and 200 μg/mL Zeocin. For the assay, the cells were harvested and resuspended in culture medium with 2% FBS and without Zeocin, then were passed through a 40 μm filter. Cells were added at 20000 cells in a 5 μL/well to a 384-well white small volume cell culture plate (Greiner VWR, Radnor, PA) which contained 50 nL/well of test compound serially diluted at a selected concentration range in DMSO. 5 μL/well of prepared 2× Stimulation Buffer 2 was then added to plates and was incubated at 37° C. with 5% CO2 for 1 h. 5 μL/well of agonist Cortistatin 14 (Bio-TechneR&D Systems, Minneapolis, MN) in 1× Stimulation Buffer 2, for a 1 μM final concentration, was then added to plates and incubated at 37° C. with 5% CO2 for 1 h. 6 μL/well of 1:20 diluted Detection Reagent Mix (d2 and Cryptate) was added to the plates and incubated for 1 h in the dark. Plates were read on the PHERAstar microplate reader (BMG Labtech Cary, NC) to determine the HTRF ratio of the acceptor and donor emission signals. The IP1 concentrations were calculated from a standard curve following the IP-One GQ kit instructions. Wells with DMSO only and wells with high concentration of reference antagonist were used as controls for normalization. Compound IC50 curves were globally fitted with 3- or 4-parameter Hill equation in a Genedata Screener (Genedata Basel, Switzerland).
A general note: TR-FRET usually uses a lanthanide donor and a delayed reading to cut background.

In assay [3] the target is T1, MRGPRX2. The experiment in a line: MRGPRX2 β-Arrestin assay. Also on record: host or cells: PathHunter CHO-K1. The following applies: PathHunter CHO-K1 MRGPRX2 β-Arrestin cell line; agonist Cortistatin 14 0.25 μM. From the text:
This assay measures compound inhibition of β-Arrestin recruitment, which is part of the G protein-independent pathway that results from the ligand-activated GPCR phosphorylation by specific GPCR kinases. The PathHunter CHO-K1 MRPGRX2 β-Arrestin Cell line stably expressing ProLink tagged MRGPRX2 and Enzyme Acceptor Tagged β-Arrestin was purchased from Eurofins DiscoverX, (Fremont, CA).
The cells were maintained in culture medium from the Europhins DiscoverX Cell Culture Kit-107 which includes FBS, hygromycin B and G418. For the assay, the cells were harvested and were resuspended with Cell Plating Reagent 2 (Eurofins DiscoverX). Cells were added 10000 cells in 25 μL/well to a 384-well black cell culture plate (Greiner VWR, Radnor, PA) which contained 125 nL/well of compound at a selected serially diluted concentration range or DMSO. The plate was incubated at 37° C. with 5% CO2 for 1 h. 2 μL/well of agonist Cortistatin 14 was diluted in Protein Dilution Buffer, (Eurofins DiscoverX) for a final concentration of 0.25 μM, was added and the plate was incubated at 37° C. with 5% CO2 for 90 min. 14 μL/well of Detection Reagent Mix (PathHunter Detection Kit, Eurofins DiscoverX) was added to the plates and further incubated for 1 h in the dark. Plates were read on the PHERAstar microplate reader (BMG Labtech Cary, NC) measuring luminescence 0.1 to 1 s per well. Data was normalized using DMSO only wells and wells with high concentration of reference antagonist as controls. Compound IC50 curves were globally fitted with 3- or 4-parameter Hill equation in a Genedata Screener (Genedata Basel, Switzerland).

The IC50 is the point on the concentration scale where inhibition reaches its midpoint. In the case of `Cn1cnc2ccnc(N[C@H]3CC[C@@H](Nc4cc(C(F)(F)F)nc5ccccc45)CC3)c21` [Example 22, (1s,4s)-N^1-(3-Methyl-3H-imidazo[4,5-c]pyridin-4-yl)-N^4-(2-(trifluoromethyl)quinolin-4-yl)cyclohexane-1,4-diamine], the IC50 was in the range of 0.1 to 100 nM in assay [1], 100 to 1000 nM in assay [2] and 0.1 to 100 nM in assay [3].

Take `Cn1cnc2ccnc(N[C@H]3CC[C@@H](Nc4cc(C(F)(F)F)nc5ccc(F)cc45)CC3)c21` [Example 23, (1s,4s)-N^1-(6-Fluoro-2-(trifluoromethyl)quinolin-4-yl)-N^4-(3-methyl-3H-imidazo[4,5-c]pyridin-4-yl)cyclohexane-1,4-diamine]: the IC50 in assay [1], in assay [2] and in assay [3] was 0.1 to 100 nM in each case.

With `FC(F)(F)c1cc(N[C@H]2CCC[C@@H](Nc3nnc4ccccn34)C2)c2cc(Cl)ccc2n1` [Example 24, (1R,3S)-N^1-([1,2,4]Triazolo[4,3-a]pyridin-3-yl)-N^3-(6-chloro-2-(trifluoromethyl)quinolin-4-yl)cyclohexane-1,3-diamine], the IC50 in assay [1], in assay [2] and in assay [3] was 0.1 to 100 nM throughout.

Regarding `Fc1ccc2nc(C(F)(F)F)cc(N[C@H]3CCC[C@@H](Nc4nccc5ncccc45)C3)c2c1` [Example 25, (1S,3R)-N^1-(6-Fluoro-2-(trifluoromethyl)quinolin-4-yl)-N^3-(1,6-naphthyridin-5-yl)cyclohexane-1,3-diamine], the IC50 in assay [1], in assay [2] and in assay [3] was 0.1 to 100 nM in each case.

Regarding `FC(F)(F)c1cc(N[C@H]2CCC[C@@H](Nc3ncnc4ncccc34)C2)c2cc(Cl)ccc2n1` [Example 26, (1S,3R)-N^1-(6-Chloro-2-(trifluoromethyl)quinolin-4-yl)-N^3-(pyrido[2,3-d]pyrimidin-4-yl)cyclohexane-1,3-diamine], the IC50 in assay [1], in assay [2] and in assay [3] was 0.1 to 100 nM in each case.

As for `Fc1ccc2nc(C(F)(F)F)cc(N[C@H]3CCC[C@@H](Nc4nnc5ccccn45)C3)c2c1` [Example 33, (1R,3S)-N^1-([1,2,4]Triazolo[4,3-a]pyridin-3-yl)-N^3-(6-fluoro-2-(trifluoromethyl)quinolin-4-yl)cyclohexane-1,3-diamine], the IC50 in assay [1], in assay [2] and in assay [3] was 0.1 to 100 nM in each case.

As to `FC(F)(F)c1cc(N[C@H]2CCC[C@@H](Nc3nnc4n3CCCC4)C2)c2cc(Cl)ccc2n1` [Example 35, (1S,3R)-N^1-(6-Chloro-2-(trifluoromethyl)quinolin-4-yl)-N^3-(5,6,7,8-tetrahydro-[1,2,4]triazolo[4,3-a]pyridin-3-yl)cyclohexane-1,3-diamine], the IC50 in assay [1], in assay [2] and in assay [3] was 0.1 to 100 nM each time.

As for `FC(F)(F)c1cc(N[C@H]2CCC[C@@H](Nc3nnc4n3CCOC4)C2)c2cc(Cl)ccc2n1` [Example 36, (1S,3R)-N^1-(6-Chloro-2-(trifluoromethyl)quinolin-4-yl)-N^3-(5,6-dihydro-8H-[1,2,4]triazolo[3,4-c][1,4]oxazin-3-yl)cyclohexane-1,3-diamine], the IC50 in assay [1], in assay [2] and in assay [3] was 0.1 to 100 nM throughout.
